Results taken from patent publication US7285678B2, “Purification of 2-nitro-4-methylsulphonylbenzoic acid” (Syngenta Limited, priority 2001, dated 2007).

Test: Ames test
Type: cell-based

CS(=O)(=O)c1ccc(C(=O)C2C(=O)CCCC2=O)c([N+](=O)[O-])c1 [Mesotrione, 2-(4-methylsulfonyl-2-nitrobenzoyl)cyclohexane-1,3-dione]
Ames test (Mesotrione made from NMSBA purified by Example 1 (one pot: filtration, activated carbon, hydrolysis at pH 13, crystallization)): negative | Ames test response (Mesotrione made from NMSBA purified by Example 2, both fractions (with carbon and without carbon)): negative | Ames test (Mesotrione made from NMSBA purified by Example 3 (20, 30 and 40% solids loading)): negative | Ames test response (Mesotrione made from NMSBA purified by Example 4 double isolation, fractions (A) and (B)): negative | Ames test result (mesotrione made by the known process from NMSBA starting material containing impurities (not purified)): positive
